Values quoted from earlier work in patent US8114298B2, “Method, device and system for water treatment” (Bromine Compounds Ltd., priority 2006, dated 2012).

Columns and labels:
[1] = bleach; background statement
[2] = at 25° C.

| SMILES | shelf life [1] | solubility in water [2] |
| --- | --- | --- |
| OCl [Sodium Hypochlorite] | 3-6 months | – |
| O=c1nc([O-])n(Cl)c(=O)n1Cl.[Na+] [NaDCC, sodium dichloroisocyanurate] | – | up to 24% |
